# T1: TG2 (Homo sapiens, UniProt P21980)
# T1 construct: purchased Zedira T022
# T1 sequence (P21980 1-687): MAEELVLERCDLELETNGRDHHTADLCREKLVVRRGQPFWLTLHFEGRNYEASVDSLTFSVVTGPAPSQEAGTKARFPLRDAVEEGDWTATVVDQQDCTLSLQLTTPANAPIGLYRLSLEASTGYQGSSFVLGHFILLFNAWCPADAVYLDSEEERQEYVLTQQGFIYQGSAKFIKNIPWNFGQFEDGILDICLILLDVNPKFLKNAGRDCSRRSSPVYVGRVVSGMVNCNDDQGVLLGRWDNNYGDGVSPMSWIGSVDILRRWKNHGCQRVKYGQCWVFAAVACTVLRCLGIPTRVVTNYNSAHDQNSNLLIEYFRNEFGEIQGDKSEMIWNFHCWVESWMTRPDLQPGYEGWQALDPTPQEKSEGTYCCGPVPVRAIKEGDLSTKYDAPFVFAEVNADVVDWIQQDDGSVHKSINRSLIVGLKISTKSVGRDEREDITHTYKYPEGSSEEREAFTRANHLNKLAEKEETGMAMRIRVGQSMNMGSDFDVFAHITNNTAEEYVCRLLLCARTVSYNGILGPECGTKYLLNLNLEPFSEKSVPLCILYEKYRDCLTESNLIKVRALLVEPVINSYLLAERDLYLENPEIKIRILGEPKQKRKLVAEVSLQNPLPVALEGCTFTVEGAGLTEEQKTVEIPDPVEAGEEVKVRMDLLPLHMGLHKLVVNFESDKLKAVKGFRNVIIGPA
# Legend:
# [1] = molecular target: T1, TG2; assay: In vitro transamidation (crosslinking) of gliadin peptides, indirect ELISA, TG2; assay type: biochemical; conditions: inhibitor 100 µM, Fig. 1A
# Procedure: TG2 (10 nM, T022, Zedira, Darmstadt, Germany) or mTG (10 nM, T001, Zedira) were immobilized on a 96‐well plate (Sarstedt, Nümbrecht, Germany) in 50 mM Tris, 1 mM ethylenediamine tetraacetic acid (EDTA), 5 mM calcium chloride (pH 7.5) buffer containing 10 mM dithiotreitol (DTT, Merck KGaA, Darmstadt, Germany). After blocking with 2% bovine serum albumin (BSA, Carl Roth GmbH, Karlsruhe, Germany), the transglutaminase inhibitors ERW1041 (5095220001, Sigma–Aldrich, Darmstadt, Germany) and mTG‐blocker (C102, Zedira, each 100 µM) were applied according to protocol. Immobilized transglutaminases were incubated with biotin‐conjugated gliadin peptides or pepsin/trypsin digested gliadin (PTG, Table 2). Detection of crosslinked biotinylated gliadin peptides and PTG was done using horseradish peroxidase (HRP)‐conjugated streptavidin (1:2500, 405210, Biolegend, San Diego, CA, USA) or a specific gliadin antibody (1:1000, clone XGY4, Zedira) and the corresponding secondary HRP‐conjugated antibody (1:1000; sc‐516102, Santa Cruz Biotechnology, Dallas, TX, USA). The HRP‐substrate tetramethylbenzidine (TMB, T0440, Sigma–Aldrich, Darmstadt, Germany) was added, and photometric quantitation at 655 nm was performed after 15 min using a Clariostar Plus microplate reader (BMG Labtech, Ortenberg, Germany).
# [2] = molecular target: T1, TG2; assay: Extracellular crosslinking of 5BP to the Caco-2 cell surface by TG2; assay type: cell-based; conditions: 5BP 500 µM, TG2 100 nM, 1 h; dose-dependent; fluorometry and confocal microscopy
# Procedure: Confluent Caco‐2 cell monolayers were incubated with the transglutaminase substrate EZ‐link pentylamine‐biotin (5‐biotinamidopentylamine [5BP], 500 µM, 21345, Thermo Fisher Scientific) with or without mTG or TG2 (100 nM) in Tris buffer for 1 h. Corresponding transglutaminase inhibitors ERW1041 and mTG‐blocker were added to the solution at the indicated concentration. After fixation with 4% paraformaldehyde and blocking with 5% BSA, cells were incubated with streptavidin‐Alexa Fluor488 (S11223, 4 µg/mL, Thermo Fisher Scientific). Fluorometric quantitation was conducted using a FLUOstar Optima microplate reader (BMG Labtech, Ortenberg, Germany). For immunofluorescence microscopy, nuclei were stained with Hoechst dye (1:1000 in PBS, 44442, Thermo Fisher Scientific) for 10 min. Microscopy was done using a confocal laser scanning microscope (TE2000‐E, Nikon) and 20x Plan Apo […] objective. Image processing and quantitation were performed using ImageJ [32].
# [3] = molecular target: T1, TG2; assay: Immunoblot of gliadin-transglutaminase complexes; assay type: biochemical; conditions: TG2 1 µM, ERW1041 100 µM, 30 min, 37°C, n = 3
# Procedure: TG2 or mTG (1 µM) was incubated with gliadin peptides (Table 2) with or without ERW1041 as TG2 blocker or the mTG‐blocker (100 µM) in Tris buffer. Biotinylated gliadin peptides or PTG was added to the solution at the indicated concentrations, and incubation was performed for 30 min at 37°C. The reaction was stopped by placing the samples on ice. Detailed description of the conditions for electrophoresis and blotting have been published elsewhere. After blocking the membrane for 1 h with 5% nonfat dry milk in phosphate buffered saline (PBS) + 2.5% tween, incubation with the primary antibody was performed at 4°C overnight (Table 3). The next day, incubation with the corresponding HRP‐conjugated secondary antibody was done. The crosslinking of biotinylated gliadin peptides was detected by streptavidin‐HRP alone. Visualization was done with the Super‐Signal West Femto kit (34096, Thermo Fisher Scientific, Langenselbold, Germany) for 5 min. Image processing and quantitation were performed using a ChemiDoc XRS+ imager and Image Lab software (BioRad Laboratories, Feldkirchen, Germany).
# [4] = tested on: Caco‐2 cells; conditions: inhibitor 100 µM, TG2 100 nM, biotinylated P56-88 and P31-49; fluorometry
# [5] = tested on: Caco‐2 cells; conditions: inhibitor 100 µM, TG2 100 nM; immunofluorescence microscopy
# [6] = tested on: Caco‐2 cells; assay: Cell viability, PrestoBlue HS assay; assay type: cell-based, human; conditions: used concentrations, 24 hours in culture medium; PrestoBlue HS 2 hours; Figure S1
# Procedure: The effect of transglutaminases on the viability of Caco‐2 cells was investigated using the resazurin‐based PrestoBlue HS assay (P50200, Thermo Fisher Scientific) as described elsewhere. Details are provided in the Supporting Information.
# Cells were incubated with mTG or TG2 at the indicated concentrations for 24 hours in culture medium. Incubation with PrestoBlue HS, diluted 1:10 in medium was performed for 2 hours at 37°C. Fluorometric examination was conducted using a Clariostar Plus microplate reader.
Effect of inhibitor on TG2-mediated crosslinking of 5BP to the cell surface [2],Molecule,Effect of inhibitor on TG2-mediated crosslinking of PTG [1],Effect of inhibitor on transamidation of gliadin peptides to TG2 [3],Effect of inhibitor on TG2-mediated gliadin peptide uptake [4],Effect of inhibitor on TG2-enhanced cellular uptake of P56-88 [5],Effect on cell viability [6]
reduced crosslinking of 5BP,O=C(NC[C@@H]1CC(Br)=NO1)[C@@H]1CCCN1C(=O)OCc1cnc2ccccc2c1 [ERW1041],significantly reduced crosslinking of PTG,significantly reduced transamidation of all gliadin peptides to TG2,to the baseline level,reduced cellular peptide uptake to the baseline level,–
–,"TG2: transglutaminase 2 (T022, Zedira) (protein, UniProt P21980 2-687, looked up) Protein-glutamine …: AEELVLERCDLELETNGRDHHTADLCREKLVVRRGQPFWLTLHFEGRNYEASVDSLTFSVVTGPAPSQEAGTKARFPLRDAVEEGDWTATVVDQQDCTLSLQLTTPANAPIGLYRLSLEASTGYQGSSFVLGHFILLFNAWCPADAVYLDSEEERQEYVLTQQGFIYQGSAKFIKNIPWNFGQFEDGILDICLILLDVNPKFLKNAGRDCSRRSSPVYVGRVVSGMVNCNDDQGVLLGRWDNNYGDGVSPMSWIGSVDILRRWKNHGCQRVKYGQCWVFAAVACTVLRCLGIPTRVVTNYNSAHDQNSNLLIEYFRNEFGEIQGDKSEMIWNFHCWVESWMTRPDLQPGYEGWQALDPTPQEKSEGTYCCGPVPVRAIKEGDLSTKYDAPFVFAEVNADVVDWIQQDDGSVHKSINRSLIVGLKISTKSVGRDEREDITHTYKYPEGSSEEREAFTRANHLNKLAEKEETGMAMRIRVGQSMNMGSDFDVFAHITNNTAEEYVCRLLLCARTVSYNGILGPECGTKYLLNLNLEPFSEKSVPLCILYEKYRDCLTESNLIKVRALLVEPVINSYLLAERDLYLENPEIKIRILGEPKQKRKLVAEVSLQNPLPVALEGCTFTVEGAGLTEEQKTVEIPDPVEAGEEVKVRMDLLPLHMGLHKLVVNFESDKLKAVKGFRNVIIGPA",–,–,–,–,did not affect cell viability
